From PubChem BioAssay AID1963838 (Molecular Pharmacology Branch, DTP, NCI, 2024)

Tested on: 855422-203-R-J1-PDC complex spheroid viability
Assay: Anticancer human tumor 855422-203-R-J1-PDC patient-derived bladder carcinoma cell line growth inhibition [POLQ]
Settings: for IC50: curve of first compound; for viability, T/C: stronger effect = lower value; active means viability on the fitted dose curve at most 10% of control; inactive means the rest
Procedure, shortened: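 PDC + HUVEC + MSC complex spheroids; POLQ inhibitors ± partner drugs; top conc. at/near clinical Cmax, else 10 microM (SN-38 1 microM), half-log dilutions; 37 degrees C, 5% CO2.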

[1] = second compound 0.0316 µM, first compound 0.0316 µM
[2] = second compound 0.0316 µM, first compound 0.1 µM
[3] = second compound 0.0316 µM, first compound 0.316 µM
[4] = second compound 0.0316 µM, first compound 1 µM
[5] = second compound 0.1 µM, first compound 0.0316 µM
[6] = second compound 0.1 µM, first compound 0.1 µM
[7] = second compound 0.1 µM, first compound 0.316 µM
[8] = second compound 0.1 µM, first compound 1 µM
[9] = second compound 0.316 µM, first compound 0.0316 µM
[10] = second compound 0.316 µM, first compound 0.1 µM
[11] = second compound 0.316 µM, first compound 0.316 µM
[12] = second compound 0.316 µM, first compound 1 µM
[13] = second compound 1 µM, first compound 0.0316 µM
[14] = second compound 1 µM, first compound 0.1 µM
[15] = second compound 1 µM, first compound 0.316 µM
[16] = second compound 1 µM, first compound 1 µM
[17] = second compound 3.16 µM, first compound 0.0316 µM
[18] = second compound 3.16 µM, first compound 0.1 µM
[19] = second compound 3.16 µM, first compound 0.316 µM
[20] = second compound 3.16 µM, first compound 1 µM
[21] = second compound 10 µM, first compound 0.0316 µM
[22] = second compound 10 µM, first compound 0.1 µM
[23] = second compound 10 µM, first compound 0.316 µM
[24] = second compound 10 µM, first compound 1 µM
[25] = second compound 0.0316 µM, first compound 3.16 µM
[26] = second compound 0.0316 µM, first compound 10 µM
[27] = second compound 0.1 µM, first compound 3.16 µM
[28] = second compound 0.1 µM, first compound 10 µM
[29] = second compound 0.316 µM, first compound 3.16 µM
[30] = second compound 0.316 µM, first compound 10 µM
[31] = second compound 1 µM, first compound 3.16 µM
[32] = second compound 1 µM, first compound 10 µM
[33] = second compound 3.16 µM, first compound 3.16 µM
[34] = second compound 3.16 µM, first compound 10 µM
[35] = second compound 10 µM, first compound 3.16 µM
[36] = second compound 10 µM, first compound 10 µM
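Further: spheroids exposed to compounds for seven days before readout.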

C=CCn1c(=O)c2cnc(Nc3ccc(N4CCN(C)CC4)cc3)nc2n1-c1cccc(C(C)(C)O)n1 + Nc1ccc(C#CCN(C(=O)Cc2ncc(C(F)(F)F)cc2C(F)(F)F)c2ccc(F)cc2)nn1
> 1000 nM: IC50 (second compound 0.0316 µM) | IC50 (second compound 0.1 µM) | IC50 (second compound 0.316 µM) | IC50 (second compound 1 µM) | IC50 (second compound 3.16 µM) | IC50 (second compound 10 µM)
inactive: viability, T/C (second compound 0.0316 µM, first compound 0.00316 µM) 96.4% | viability, T/C (second compound 0.0316 µM, first compound 0.01 µM) 152% | viability, T/C [1] 113% | viability, T/C [2] 85.5% | viability, T/C [3] 113% | viability, T/C [4] 204% | viability, T/C (second compound 0.1 µM, first compound 0.00316 µM) 97% | viability, T/C (second compound 0.1 µM, first compound 0.01 µM) 127% | viability, T/C [5] 110% | viability, T/C [6] 101% | viability, T/C [7] 114% | viability, T/C [8] 160% | viability, T/C (second compound 0.316 µM, first compound 0.00316 µM) 110% | viability, T/C (second compound 0.316 µM, first compound 0.01 µM) 134% | viability, T/C [9] 102% | viability, T/C [10] 107% | viability, T/C [11] 110% | viability, T/C [12] 219% | viability, T/C (second compound 1 µM, first compound 0.00316 µM) 94.4% | viability, T/C (second compound 1 µM, first compound 0.01 µM) 144% | viability, T/C [13] 103% | viability, T/C [14] 112% | viability, T/C [15] 118% | viability, T/C [16] 193% | viability, T/C (second compound 3.16 µM, first compound 0.00316 µM) 102% | viability, T/C (second compound 3.16 µM, first compound 0.01 µM) 112% | viability, T/C [17] 107% | viability, T/C [18] 115% | viability, T/C [19] 126% | viability, T/C [20] 198% | viability, T/C (second compound 10 µM, first compound 0.00316 µM) 104% | viability, T/C (second compound 10 µM, first compound 0.01 µM) 101% | viability, T/C [21] 96.9% | viability, T/C [22] 122% | viability, T/C [23] 109% | viability, T/C [24] 161%

COc1cc2cc(C(=O)CCC(=O)O)sc2cc1OC + Nc1ccc(C#CCN(C(=O)Cc2ncc(C(F)(F)F)cc2C(F)(F)F)c2ccc(F)cc2)nn1
> 10000 nM: IC50 (second compound 0.0316 µM) | IC50 (second compound 0.1 µM) | IC50 (second compound 0.316 µM) | IC50 (second compound 1 µM) | IC50 (second compound 3.16 µM) | IC50 (second compound 10 µM)
inactive: viability, T/C [1] 97.8% | viability, T/C [2] 121% | viability, T/C [3] 97.6% | viability, T/C [4] 86.3% | viability, T/C [25] 109% | viability, T/C [26] 94.5% | viability, T/C [5] 99.8% | viability, T/C [6] 101% | viability, T/C [7] 91% | viability, T/C [8] 82% | viability, T/C [27] 138% | viability, T/C [28] 109% | viability, T/C [9] 104% | viability, T/C [10] 105% | viability, T/C [11] 90% | viability, T/C [12] 94.1% | viability, T/C [29] 107% | viability, T/C [30] 92% | viability, T/C [13] 86.8% | viability, T/C [14] 104% | viability, T/C [15] 102% | viability, T/C [16] 98.7% | viability, T/C [31] 97.3% | viability, T/C [32] 90.4% | viability, T/C [17] 92.4% | viability, T/C [18] 111% | viability, T/C [19] 94.9% | viability, T/C [20] 97.5% | viability, T/C [33] 97.1% | viability, T/C [34] 88.6% | viability, T/C [21] 92.8% | viability, T/C [22] 92% | viability, T/C [23] 87.1% | viability, T/C [24] 102% | viability, T/C [35] 96% | viability, T/C [36] 88.5%

Nc1ccn(C2OC(CO)C(O)C2(F)F)c(=O)n1 (stereo unspecified) + Nc1ccc(C#CCN(C(=O)Cc2ncc(C(F)(F)F)cc2C(F)(F)F)c2ccc(F)cc2)nn1
207 nM: IC50 (second compound 3.16 µM)
447 nM: IC50 (second compound 10 µM)
61.9 nM: IC50 (second compound 0.0316 µM)
82.3 nM: IC50 (second compound 0.316 µM)
inactive: viability, T/C [1] 93.6% | viability, T/C [2] 18.9% | viability, T/C [3] 17.6% | viability, T/C [4] 13.8% | viability, T/C [25] 11% | viability, T/C [26] 6.83% | viability, T/C [5] 99.3% | viability, T/C [6] 15.9% | viability, T/C [7] 18.2% | viability, T/C [8] 14.1% | viability, T/C [27] 12.3% | viability, T/C [28] 9.34% | viability, T/C [9] 148% | viability, T/C [10] 29.9% | viability, T/C [11] 16% | viability, T/C [12] 18.6% | viability, T/C [29] 11.3% | viability, T/C [30] 8.21% | viability, T/C [13] 136% | viability, T/C [14] 42.2% | viability, T/C [15] 16.8% | viability, T/C [16] 14.5% | viability, T/C [31] 11.3% | viability, T/C [32] 10.8% | viability, T/C [17] 118% | viability, T/C [18] 103% | viability, T/C [19] 19.4% | viability, T/C [20] 16.3% | viability, T/C [33] 14.8% | viability, T/C [34] 11.8% | viability, T/C [21] 105% | viability, T/C [22] 210% | viability, T/C [23] 63.6% | viability, T/C [24] 23% | viability, T/C [35] 18.2% | viability, T/C [36] 14.1%
91.2 nM: IC50 (second compound 1 µM)
62.5 nM: IC50 (second compound 0.1 µM)
